Experimental data taken from US10125104B2, “Carotenoid derivative, pharmaceutically acceptable salt thereof, or pharmaceutically acceptable ester or amide thereof” (Asta Pharmaceuticals Co., Ltd., priority 2014, dated 2018).

Experiments:
[1] = tested on: IL-1β; test: Test for anti-inflammation in rats (LPS intraperitoneally): blood plasma IL-1β by ELISA; type: in vivo, Wistar rats; conditions: for IL-1β concentration in blood plasma: 4 mg/kg LPS i.p., then sample i.p., blood after 9 hours
Description: (§1) Test for Anti-Inflammation in Rats
(§2) Six week-old Wistar rats (purchased from Sankyo Labo Service Corporation, 200-250 g body weight) were acclimatized for 1 week with free access to food under a 12/12-hr light-dark cycle. An aqueous solution of 4 mg/kg LPS (lipopolysaccharide, derived from Escherichia coli and manufactured by Wako Pure Chemical Industries, Ltd.) was injected intraperitoneally and then an aqueous solution of the sample was injected intraperitoneally. After 9 hours, the whole blood was collected from the ventral aorta and centrifuged for 10 minutes at 10,000 rpm, and the blood plasma was collected. The blood plasma TNF-α concentration was measured using a kit for measuring TNF-α (Rat TNF-alpha Quantikine ELISA Kit RTA00, manufactured by R&D Systems Inc.) and the blood plasma IL-1β concentration was measured using a kit for measuring IL-1β (Rat IL-1b/IL1F2 Quantikine ELISA Kit, manufactured by R&D Systems Inc.). The 3 to 4 animals per group were used. The blood plasma TNF-α concentration is shown in Table 46 and FIG. 3 and the blood plasma IL-1β concentration is shown in Table 46 and FIG. 4.

[2] = tested on: IL-1β mRNA in RAW264.7 cells; test: Test for anti-inflammation in a cell: IL-1β mRNA by quantitative RT-PCR after LPS; type: cell-based, mouse; conditions: for IL-1β Gene expressivity: relative to the control, LPS 1 ng/mL, 2 hours; for suppression of IL-1β gene expression (in words): RAW264.7 cells, LPS
Description: Test for Anti-Inflammation in a Cell
These cells were cultured for 48 hours in 5% CO2 at 37° C. After the medium replacement, an aqueous solution of the sample was added to the medium and the cell was cultured for 24 hours. The medium was then replaced, LPS (1 ng/mL) was added thereto and the cell was cultured for 2 hours.
Then, the medium was removed and the RAW264.7 cells were washed with physiological phosphate buffer solution (PBS). This operation was performed 3 times. Then, Total RNA was extracted using RNeasy Mini Kit (QIAGEN Inc.), and the production amount of IL-1β mRNA which is an inflammatory cytokine, was measured by a quantitative RT-PCR method using PRISM 7000 (Applied Biosystem).

[3] = digestive absorption; cited from earlier work
[4] = Test for confirmation of water solubility (distribution to water/methylene chloride); type: physicochemical
Description: Test for Confirmation of Water Solubility (Distribution to Water/Methylene Chloride)
To each of the samples (1 mg) in Table 43, water (5 mL) and methylene chloride (5 mL) were added and the mixture was shaken, which was called the group of Solution A. A 28% sodium methoxide/methanol solution (463 μL (2.33 mmol)) was dissolved in water (10 mL), and the aqueous solution (1 mL) was collected and dissolved in water (100 mL), which was called Solution B. To each of the group of Solution A, Solution B (1 mL) was added and shaken. The solution was left at room temperature, each of the aqueous layer and of the organic layer were measured by HPLC and the ratio of the compound in the aqueous layer was shown in Table 4.
HPLC conditions were as follows:
chromatograph (HITACHI LaChrom Elite D-2000), column (SHISEIDO CAPCELL PAK C18 (3 μm particle diameter, 4.6 mm×150 mm)), detection temperature (40° C.), detection wavelength (474 nm), flow rate (1.0 mL/min) and mobile phase set up (% A=0.025% TFA/water, % B=0.025% TFA/acetonitrile); 70% A/30% B (at the start), 50% B gradient until 2.5 minutes, 98% B gradient until 4.2 minutes and the ratio (98% B) maintained until 15 minutes. The ratio in the aqueous layer was calculated from the following equation. […]

[5] = tested on: TNF-α; test: Test for anti-inflammation in rats (LPS intraperitoneally): blood plasma TNF-α by ELISA; type: in vivo, Wistar rats; conditions: for TNF-α concentration in blood plasma: 4 mg/kg LPS i.p., then sample i.p., blood after 9 hours
Description: as §1, §2

[6] = Test for oral absorption: blood plasma concentration of astaxanthin after oral gavage; type: in vivo, Wistar rat; conditions: compared to astaxanthin (free form) and the extract from Haematococcus algae
Description: Test for Oral Absorption in […]
Each of the compound in Example 8, astaxanthin (free form) and an extract from Haematococcus algae (AstaReal L10, manufactured by Fuji Chemical Industries Co., Ltd., oil containing 10% astaxanthin extracted from Haematococcus algae) was diluted with 33% dimethyl sulfoxide, 60% polyethylene glycol and 0.03% aqueous carboxymethyl cellulose solution and prepared to have a concentration of 5 mg/ml as a conversion to astaxanthin free form. The prepared sample was administered to a Wistar rat fasted one night (male, 9 to 13 weeks old, 250 to 300 g of body weight, 2 or 4 animals per group) by oral gavage in an amount of astaxanthin (50 mg) per 1 kg of body weight. Then, the blood was collected at the time points of 3 hours, 6 hours and 24 hours and the blood plasma was isolated. To the obtained blood plasma (0.1 ml), acetone in an amount of 6 folds and hexane in an amount of 50 folds were added, and the solution was stirred well and centrifuged to obtain a hexane layer. The hexane layer was dried under reduced pressure and dissolved in acetone (0.1 ml). The obtained acetone solution (0.05 mL) was analyzed by high performance liquid chromatography (HPLC) under the following conditions and the blood concentration was measured. […]

[7] = compared to astaxanthin and disodium disuccinate astaxanthin

Structure (SMILES)	IL-1β concentration in blood plasma [1]	IL-1β Gene expressivity ([2]; sample concentration 5 μM)	IL-1β Gene expressivity ([2]; sample concentration 25 μM)	IL-1β Gene expressivity ([2]; sample concentration 50 μM)	TNF-α concentration in blood plasma [5]	suppression of IL-1β gene expression (in words) [2]	also measured
CC(C=CC=C(C)C=CC1=C(C)C(=O)C(O)CC1(C)C)=CC=CC=C(C)C=CC=C(C)C=CC1=C(C)C(=O)C(O)CC1(C)C (stereo not drawn) [Astaxanthin, 6-hydroxy-3-(18-[4-hydroxy-2,6,6-trimethyl-3-oxo-1-cyclohexenyl]-3,7,12,16-tetramethyloctadeca-1,3,5,7,9,11,13,15,17-nonaenyl)-2,4,4-trimethyl-2-cyclohexen-1-one, reference compound]	203.9 ± 165.3 pg/mL	1.00	0.96	0.77	112.0 ± 35.6 pg/mL		biological availability [3]: around several percent; water solubility (in words) [4]: extremely low solubility in water
CC(C=CC=C(C)C=CC1=C(C)C(=O)C(OC(=O)CNC(=O)NCCCC(=O)O)CC1(C)C)=CC=CC=C(C)C=CC=C(C)C=CC1=C(C)C(=O)C(OC(=O)CNC(=O)NCCCC(=O)O)CC1(C)C (stereo not drawn) [Example (8), 4-(3-{4-[18-(4-[3-(3-carboxylpropyl)ureidoacetoxy]-2,6,6-trimethyl-3-oxocyclohexa-1-enyl)-3,7,12,16-tetramethyloctadeca-1,3,5,7,9,11,13,15,17-nonaenyl]-3,5,5-trimethyl-2-oxocyclohexa-3-enyloxycarbonylmethyl}-ureido)butyric acid]							oral absorbability (in words) [6]: higher oral absorbability
CC(C=CC=C(C)C=CC1=C(C)C(=O)C(OC(=O)CNC(=O)NCCCC(=O)[O-])CC1(C)C)=CC=CC=C(C)C=CC=C(C)C=CC1=C(C)C(=O)C(OC(=O)CNC(=O)NCCCC(=O)[O-])CC1(C)C.[Na+].[Na+] (stereo not drawn) [Example (22), 4-(3-{4-[18-(4-[3-(3-carboxypropyl)ureidoacetoxy]-2,6,6-trimethyl-3-oxocyclohexa-1-enyl)-3,7,12,16-tetramethyloctadeca-1,3,5,7,9,11,13,15,17-nonaenyl]-3,5,5-trimethyl-2-oxocyclohexa-3-enyloxycarbonylmethyl}-ureido)butyric acid disodium salt]		0.92	0.66	0.31		suppressed IL-1β gene expression superiorly to astaxanthin	
CC(C=CC=C(C)C=CC1=C(C)C(=O)C(OC(=O)CNC(=O)NCCCC(=O)O)CC1(C)C)=CC=CC=C(C)C=CC=C(C)C=CC1=C(C)C(=O)C(OC(=O)CNC(=O)NCCCC(=O)O)CC1(C)C.NCCCC[C@H](N)C(=O)O.NCCCC[C@H](N)C(=O)O (stereo not drawn) [Example (23), 4-(3-{4-[18-(4-[3-(3-carboxypropyl)ureidoacetoxy]-2,6,6-trimethyl-3-oxocyclohexa-1-enyl)-3,7,12,16-tetramethyloctadeca-1,3,5,7,9,11,13,15,17-nonaenyl]-3,5,5-trimethyl-2-oxocyclohexa-3-enyloxycarbonylmethyl}-ureido)butyric acid dilysine salt]	146.3 ± 98.0 pg/mL	0.88			81.8 ± 83.5 pg/mL	suppressed IL-1β gene expression superiorly to astaxanthin	suppression of generation of IL-1β (in words) [1, 7]: suppressed generation of TNF-α and of IL-1β more effectively; suppression of generation of TNF-α (in words) [5, 7]: suppressed generation of TNF-α and of IL-1β more effectively
CC(C=CC=C(C)C=CC1=C(C)C(=O)C(OC(=O)CCC(=O)O)CC1(C)C)=CC=CC=C(C)C=CC=C(C)C=CC1=C(C)C(=O)C(OC(=O)CCC(=O)O)CC1(C)C (stereo not drawn) [Astaxanthin disuccinate ester, astaxanthin disuccinic acid ester]							Ratio of aqueous layer ([4]; 1 mg sample in water 5 mL / methylene chloride 5 mL plus dilute sodium methoxide solution, HPLC peak areas, 474 nm): 43.8%
CC1=C(/C=C/C(C)=C/C=C/C(C)=C/C=C/C=C(C)/C=C/C=C(C)/C=C/C2=C(C)C(=O)C(OC(=O)CCC(=O)O)CC2(C)C)C(C)(C)CC(OC(=O)CCC(=O)O)C1=O (stereo not drawn) [Disodium Disuccinate Astaxanthin (DDA), Disodium Disuccinate Astaxanthin, reference compound]	311.7 ± 269.1 pg/mL				99.6 ± 99.9 pg/mL		
